Reference: ChEMBL document CHEMBL1255348, “Susceptibility testing of anidulafungin and voriconazole alone and in combination against conidia and hyphae of Aspergillus spp. under hypoxic conditions” (2008)
Values after ≈ are worked out from the molar mass of the structure shown. *1 amine or outer side, *2 acyl side, *3 side chain or, on linkers, in order; H or OH if unused. Where a SMILES comes first, the peptide text is derived from it. Bridges are numbered along the chain shown (N, C = ends). [ ]: non-standard residue; d: D form. The star is where a group is joined. pTerphenylCO(4''-OnC5H11) = CCCCCOc1ccc(-c2ccc(-c3ccc(C(=O)*)cc3)cc2)cc1; Orn(4R-OH,5R-OH) = O=C([C@H](C[C@@H](O)[C@@H](O)N[*:3])N[*:1])[*:2]; hTyr(3S-OH,4S-OH) = N[C@H](C(=O)O)[C@H](O)[C@@H](O)c1ccc(O)cc1; Pro(3S-OH,4S-Me) = C[C@H]1CN[C@H](C(=O)O)[C@H]1O; Hyp = O=C(O)[C@@H]1C[C@@H](O)CN1

Key:
Type in all cases: functional
Aspergillus fumigatus [1] = test: Antimicrobial activity against Aspergillus fumigatus conidia isolated from aspergillosis patient after 48 hrs under hypoxic condition by broth microdilution method
Aspergillus terreus [2] = test: Antimicrobial activity against Aspergillus terreus conidia isolated from aspergillosis patient after 48 hrs under hypoxic condition by broth microdilution method
Aspergillus flavus [3] = test: Antimicrobial activity against Aspergillus flavus conidia isolated from aspergillosis patient after 48 hrs under hypoxic condition by broth microdilution method
Aspergillus niger [4] = test: Antimicrobial activity against Aspergillus niger conidia isolated from aspergillosis patient after 48 hrs under hypoxic condition by broth microdilution method
Aspergillus fumigatus [5] = test: Antimicrobial activity against Aspergillus fumigatus hyphae isolated from aspergillosis patient after 48 hrs under hypoxic condition by broth microdilution method
Aspergillus terreus [6] = test: Antimicrobial activity against Aspergillus terreus hyphae isolated from aspergillosis patient after 48 hrs under hypoxic condition by broth microdilution method
Aspergillus flavus [7] = test: Antimicrobial activity against Aspergillus flavus hyphae isolated from aspergillosis patient after 48 hrs under hypoxic condition by broth microdilution method
Aspergillus niger [8] = test: Antimicrobial activity against Aspergillus niger hyphae isolated from aspergillosis patient after 48 hrs under hypoxic condition by broth microdilution method
Aspergillus fumigatus [9] = test: Antimicrobial activity against Aspergillus fumigatus conidia isolated from aspergillosis patient after 48 hrs under hypoxic condition by broth microdilution method in presence of voriconazole
Aspergillus terreus [10] = test: Antimicrobial activity against Aspergillus terreus conidia isolated from aspergillosis patient after 48 hrs under hypoxic condition by broth microdilution method in presence of voriconazole
Aspergillus flavus [11] = test: Antimicrobial activity against Aspergillus flavus conidia isolated from aspergillosis patient after 48 hrs under hypoxic condition by broth microdilution method in presence of voriconazole
Aspergillus niger [12] = test: Antimicrobial activity against Aspergillus niger conidia isolated from aspergillosis patient after 48 hrs under hypoxic condition by broth microdilution method in presence of voriconazole
Aspergillus fumigatus [13] = test: Antimicrobial activity against Aspergillus fumigatus hyphae isolated from aspergillosis patient after 48 hrs under hypoxic condition by broth microdilution method in presence of voriconazole
Aspergillus terreus [14] = test: Antimicrobial activity against Aspergillus terreus hyphae isolated from aspergillosis patient after 48 hrs under hypoxic condition by broth microdilution method in presence of voriconazole
Aspergillus flavus [15] = test: Antimicrobial activity against Aspergillus flavus hyphae isolated from aspergillosis patient after 48 hrs under hypoxic condition by broth microdilution method in presence of voriconazole
Aspergillus niger [16] = test: Antimicrobial activity against Aspergillus niger hyphae isolated from aspergillosis patient after 48 hrs under hypoxic condition by broth microdilution method in presence of voriconazole

SMILES	MIC (Aspergillus fumigatus [1]) [µg/mL]	MIC (Aspergillus terreus [2]) [µg/mL]	MIC (Aspergillus flavus [3]) [µg/mL]	MIC (Aspergillus niger [4]) [µg/mL]	MIC (Aspergillus fumigatus [5]) [µg/mL]	MIC (Aspergillus terreus [6]) [µg/mL]	MIC (Aspergillus flavus [7]) [µg/mL]	MIC (Aspergillus niger [8]) [µg/mL]	fractional inhibitory concentration index (FICI) (Aspergillus fumigatus [9])	fractional inhibitory concentration index (FICI) (Aspergillus terreus [10])	fractional inhibitory concentration index (FICI) (Aspergillus flavus [11])	fractional inhibitory concentration index (FICI) (Aspergillus niger [12])	fractional inhibitory concentration index (FICI) (Aspergillus fumigatus [13])	fractional inhibitory concentration index (FICI) (Aspergillus terreus [14])	fractional inhibitory concentration index (FICI) (Aspergillus flavus [15])	fractional inhibitory concentration index (FICI) (Aspergillus niger [16])
C[C@@H](c1ncncc1F)[C@](O)(Cn1cncn1)c1ccc(F)cc1F [VORICONAZOLE]	0.5 (≈ 1.43 µM)	1 (≈ 2.86 µM)	1 (≈ 2.86 µM)	1 (≈ 2.86 µM)	1 (≈ 2.86 µM)	1 (≈ 2.86 µM)	2 (≈ 5.73 µM)	1 (≈ 2.86 µM)								
CCCCCOc1ccc(-c2ccc(-c3ccc(C(=O)N[C@H]4C[C@@H](O)[C@@H](O)NC(=O)[C@@H]5[C@@H](O)[C@@H](C)CN5C(=O)[C@H]([C@@H](C)O)NC(=O)[C@H]([C@H](O)[C@@H](O)c5ccc(O)cc5)NC(=O)[C@@H]5C[C@@H](O)CN5C(=O)[C@H]([C@@H](C)O)NC4=O)cc3)cc2)cc1 [ANIDULAFUNGIN] ({pTerphenylCO(4''-OnC5H11)}-[Orn(4R-OH,5R-OH)]T[Hyp][hTyr(3S-OH,4S-OH)]T[Pro(3S-OH,4S-Me)]; lactam 1-C)	0.01 (≈ 0.00877 µM)	0.01 (≈ 0.00877 µM)	0.06 (≈ 0.0526 µM)	0.008 (≈ 0.00702 µM)	0.03 (≈ 0.0263 µM)	0.01 (≈ 0.00877 µM)	0.03 (≈ 0.0263 µM)	0.01 (≈ 0.00877 µM)	0.7	0.9	0.7	0.5	1	0.8	1	0.7
